In PubChem BioAssay (NCI):
Several values for one entry are separate records, joined by “and”; a condition that tells them apart may be missing. Identical values can stand only once.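 Growth conditions: 96-well plates. Treatment: test compound, 48 hours, 5 concentrations. Analysis: linear interpolation between bracketing concentrations; unreached endpoints set to highest concentration. Here, GI50 denotes the concentration required for 50% inhibition of growth. The concentration for full growth arrest is given as TGI.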

What was measured:
Experiment in all cases: NCI tumour cell line growth inhibition, 48 h
DU-145 prostate = test system: DU-145 prostate
SNB-19 CNS = test system: SNB-19 CNS
HS 578T breast = test system: HS 578T breast
M14 melanoma = test system: M14 melanoma
KM12 colon = test system: KM12 colon
MDA-MB-231 breast = test system: MDA-MB-231 breast
A549 NSCLC = test system: A549 NSCLC
UO-31 renal = test system: UO-31 renal
SF-295 CNS = test system: SF-295 CNS
NCI-H23 lung = test system: NCI-H23 lung

Row | Compound | TGI (DU-145 prostate) [µM] | TGI (SNB-19 CNS) [µM] | TGI (HS 578T breast) [µM] | TGI (M14 melanoma) [µM] | TGI (KM12 colon) | TGI (MDA-MB-231 breast) [µM] | TGI (A549 NSCLC) [µM] | TGI (UO-31 renal) [µM] | TGI (SF-295 CNS) [µM] | TGI (NCI-H23 lung) [µM] | GI50 (DU-145 prostate) [µM] | GI50 (HS 578T breast) [µM] | GI50 (KM12 colon) [µM] | GI50 (MDA-MB-231 breast) [µM] | GI50 (A549 NSCLC) [µM] | GI50 (UO-31 renal) [µM] | GI50 (NCI-H23 lung) [µM]
1 | O=C1OCC(O)=C1C(c1ccc(Cl)cc1)c1cc2c(cc1O)OCO2 (stereo unspecified) | > 100 | > 100 | > 100 | > 100 | > 100 µM | > 100 | > 100 | > 100 | – | – | – | – | – | – | – | – | –
2 | O=C1/C(=C/c2ccc(O)cc2)CC/C1=C\c1ccc(O)cc1 | > 100 | > 100 | > 100 | > 100 | > 100 µM | > 100 | > 100 | > 100 | > 100 | > 100 | – | – | – | – | – | – | –
3 | Nc1cccc2cc(Cl)cnc12 | > 100 | > 100 | > 100 | > 100 | > 100 µM | > 100 | > 100 | > 100 | > 100 | > 100 | – | – | – | – | – | – | –
4 | CCCNC1=C2CC(C)CC(OC)[C@@H](O)[C@H](C)/C=C(\C)C(OC(N)=O)C(OC)/C=C\C=C(/C)C(=O)NC(=CC1=O)C2=O (stereo partly specified) | 65.5 | > 100 | 36.8 | – | 0.673 µM and 0.727 µM | 7.47 | 27.9 | 32.2 | 19.9 | 23 | 14.8 | 0.625 | 0.0239 | 3.36 | 0.514 | 0.558 | 0.0639
5 | CCC1(O)CC2CC(=O)OC2C1O (stereo unspecified) | > 100 | > 100 | > 100 | > 100 | > 100 µM | > 100 | > 100 | > 100 | > 100 | > 100 | – | – | – | – | – | – | –
6 | COc1c(C)c(C/C=C(\C)CCCCO[Si](c2ccccc2)(c2ccccc2)C(C)(C)C)c(OC)c(OC)c1OC | 37.6 | > 46.4 | > 100 | > 46.4 | 26.4 µM | > 100 | 51 | 19.4 | > 46.4 | 38.7 | – | – | – | – | – | – | –
7 | C[C@@]12C[C@@H](c3ccccc3O1)N1CCCCSC1=N2 | > 100 | > 100 | > 100 | > 100 | > 100 µM | > 100 | – | > 100 | > 100 | > 100 | – | – | – | – | – | – | –
8 | Clc1ccc(/C=C/c2nc3ccccc3s2)cc1Cl | > 100 | > 100 | 80.8 | > 100 | > 100 µM | > 100 | > 100 | 56 | > 100 | > 100 | – | – | – | – | – | – | –
9 | CCOC(=O)N1CCC2(CC1)C[C@](C)(C(C)=O)C(C)O2 (stereo partly specified) | – | > 100 | > 100 | > 100 | > 100 µM | > 100 | > 100 | > 100 | > 100 | > 100 | – | – | – | – | – | – | –
10 | CCc1ccc(CCN2CCCCC2)nc1 | > 100 | > 100 | > 100 | > 100 | > 100 µM | > 100 | > 100 | > 100 | > 100 | > 100 | – | – | – | – | – | – | –
11 | CC(C)c1ccc(/C=C2/C=C(c3ccc4ccccc4c3)OC2=O)cc1 | > 100 | > 100 | > 100 | > 100 | > 100 µM | > 100 | > 100 | > 100 | > 100 | > 100 | – | – | – | – | – | – | –
12 | COC(=O)c1cc2c(n1S(=O)(=O)c1ccc(C)cc1)C(=O)C(=O)c1[nH]cc(C(=O)OCc3ccccc3)c1-2 | 0.276 | 0.441 | 5.8 | 0.167 | 0.563 µM | 0.168 | 0.351 | 0.685 | 0.259 | 0.211 | – | – | – | – | – | – | –
13 | N#CC1=C(N)N(c2ccccc2)C(c2ccco2)C1(C#N)C#N (stereo unspecified) | 37.4 | 71.4 | > 100 | 43.4 | 37.2 µM | 35.1 | > 100 | 33.6 | 93.9 | 38.9 | – | – | – | – | – | – | –
14 | Oc1cc2c3c(c1)c1cc4c(cc1c[n+]3CC2)OCO4 | > 42.9 | 10.2 | 13.6 | > 100 | 13.9 µM | 29.9 | > 88.5 | > 100 | > 100 | 13.3 | – | – | – | – | – | – | –
15 | N=c1n(C(=O)N2CCCC2)c2cc(Cl)ccc2n1C1=NCCN1 | > 100 | > 100 | > 100 | > 100 | > 100 µM | > 100 | > 100 | – | > 100 | – | – | – | – | – | – | – | –
16 | Cc1cn(C2CC(n3cc(Cn4cc(I)c(=O)[nH]c4=O)nn3)C(CO)O2)c(=O)[nH]c1=O (stereo unspecified) | > 100 | > 100 | > 100 | > 100 | > 100 µM | > 100 | > 100 | – | > 100 | > 100 | – | – | – | – | – | – | –
17 | CC(=O)O[C@H]1C(=O)[C@]2(C)[C@@H](OC(=O)OCCC(O)CO)C[C@H]3OC[C@@]3(OC(C)=O)[C@H]2[C@H](OC(=O)c2ccccc2)[C@]2(O)C[C@H](OC(=O)[C@H](O)[C@@H](NC(=O)c3ccccc3)c3ccccc3)C(C)=C1C2(C)C (stereo partly specified) | 0.0657 | 88.4 | 0.479 | 7.16 | – | 3.7 | > 100 | > 100 | 1.12 | 21.7 | – | – | – | – | – | – | –
18 | COc1ccc(/C=C2\CCC(C)C3=C2NC(=S)NC3c2ccc(OC)c(OC)c2)cc1OC (stereo unspecified) | > 31.6 | > 31.6 | > 31.6 | > 31.6 | > 31.6 µM | > 31.6 | > 100 | > 31.6 | > 31.6 | – | – | – | – | – | – | – | –
19 | CN1CCN([C@H]2C[C@H]3[C@@H]4CC=C5C[C@@H](O)CC[C@]5(C)[C@H]4CC[C@]3(C)C2=O)CC1 | – | > 100 | > 100 | > 100 | > 100 µM | > 100 | > 100 | > 100 | > 100 | > 100 | – | – | – | – | – | – | –
20 | COC(=O)[C@H](Cc1c[nH]c2ccccc12)NP(=O)(O)OCC1C=CC(n2cc(C)c(=O)[nH]c2=O)O1 (stereo partly specified) | > 100 | > 100 | > 100 | – | > 100 µM | > 100 | – | – | – | > 100 | – | – | – | – | – | – | –
21 | O=C1CCC(=O)N1n1c(Cc2ccccc2)n[nH]c1=O | > 100 | > 100 | > 100 | > 100 | 46.4 µM | > 100 | > 100 | > 100 | > 100 | – | – | – | – | – | – | – | –
